{"source": "paper PMC12260505", "about": "“First-in-Human Phase I/IIa Study of the First-in-Class CDK2/4/6 Inhibitor PF-06873600 Alone or with Endocrine Therapy in Patients with Breast Cancer” (Clinical Cancer Research, 2025)", "key": {"phosphorylated Rb (pRb)": {"test_system": "phosphorylated Rb (pRb)", "assay": "IHC of pRb (H-score) in paired tumor biopsies", "assay_type": "in vivo, human", "description": "The pharmacodynamic effects of PF-06873600 were assessed by IHC staining of pRb and Ki67 in tumor biopsy samples collected at screening and day 1 of cycle 2 (4 hours after dose). Immunostaining was performed on […] formalin-fixed, paraffin-embedded tissue sections using rabbit monoclonal anti-Rb (Ser807/811) antibody (clone D20B12, Cell Signaling Technology) and rabbit monoclonal anti-Ki67 antibody (Ventana Medical Systems), respectively. pRb and Ki67 expressions were assessed semiquantitatively by a board-certified pathologist. Scoring was performed using the percentage of cells positive for Ki67 or a histo-score (H-score) methodology for pRb based on staining intensity and the percentage of positive cells. Intensity was scored as 0, none; 1, weak; 2, moderate; or 3, strong, and H-scores were calculated as follows: H-score = [fraction of cells with intensity grade 1 (%)] + [fraction of cells with intensity grade 2 (%) × 2] + [fraction of cells with intensity grade 3 (%) × 3]."}, "CDK1": {"biological_target": "CDK1", "parameters": "method as in PMID 34110834", "conditions": "cited from earlier work"}, "CDK4": {"biological_target": "CDK4", "parameters": "method as in PMID 34110834", "conditions": "cited from earlier work"}, "ctDNA": {"test_system": "ctDNA", "assay": "ctDNA molecular response (Guardant360, meanVAF change)", "assay_type": "in vivo, human", "conditions": "plus fulvestrant; for Median ctDNA molecular response: combined parts 2A and 2C; for Median change in ctDNA meanVAF: cycle 1 day 15 from cycle 1 day 1", "description": "Plasma samples were collected at cycle 1 day 1, cycle 1 day 15, and the end of treatment (EOT). Genomic alterations in ctDNA were detected using the next-generation sequencing–based 74-gene Guardant360 platform (Guardant Health). ctDNA molecular response between the two samples was determined as described by Mack and colleagues ([9]). Briefly, after subtracting germline variants and potential clonal hematopoiesis of indeterminate potential, the mean variant allele frequency (meanVAF) of somatic variants (including single-nucleotide variants, insertions and deletions, and fusions) with a mutant molecular count above a proprietary threshold was calculated for each sample by averaging the VAFs of all variants detected among the two samples. The relative change of meanVAF of the posttreatment sample from the baseline sample was then calculated as the ctDNA molecular response. Samples lacking somatic variants with sufficient mutant molecular counts or the absence of any somatic alterations at both time points were considered ctDNA low and not evaluable for molecular response."}}}
{"smiles": "C[C@@]1(O)CCC[C@H]1n1c(=O)c(C(F)F)cc2cnc(NC3CCN(S(C)(=O)=O)CC3)nc21", "note": "[PF-06873600]", "values": [{"measurement": "Median change in pRb H-score from baseline", "setting": "phosphorylated Rb (pRb); IR 25 mg twice daily monotherapy, cycle 2 day 1, HR+/HER2− mBC tumor biopsies", "value": "–16.5%"}, {"measurement": "Median percentage change in pRb H-score from baseline", "setting": "phosphorylated Rb (pRb); IR 25 mg twice daily/fulvestrant combination, cycle 2 day 1", "value": "–31.9%"}, {"measurement": "Ki", "setting": "CDK1", "value": 4.5, "unit": "nM"}, {"measurement": "Ki", "setting": "CDK4", "value": 1.25, "unit": "nM"}, {"measurement": "Median ctDNA molecular response", "setting": "ctDNA; EOT", "value": 6, "unit": "%"}, {"measurement": "Median ctDNA molecular response", "setting": "ctDNA; cycle 1 day 15", "value": "−60", "unit": "%"}, {"measurement": "Median change in ctDNA meanVAF", "setting": "ctDNA; part 2A (28 evaluable)", "value": "−61", "unit": "%"}, {"measurement": "Median change in ctDNA meanVAF", "setting": "ctDNA; part 2C (14 evaluable)", "value": "−54", "unit": "%"}]}
